From US6423720B1, “Pyrimidine compounds and methods for making and using the same” (Duquesne University of the Holy Ghost, priority 2001, dated 2002) come the findings set out here.

Structures are written as SMILES. Marks after values point to notes of the source that are not given here.

The target in data set [1] is T1, dihydrofolate reductase (DHFR) from rat liver (RL) (Rattus norvegicus, UniProt Q920D2).
T1 construct: the IC50 value of the DHFR from rat liver (RL); from tissue; host or cells: rat liver
T1 sequence (Q920D2 1-187): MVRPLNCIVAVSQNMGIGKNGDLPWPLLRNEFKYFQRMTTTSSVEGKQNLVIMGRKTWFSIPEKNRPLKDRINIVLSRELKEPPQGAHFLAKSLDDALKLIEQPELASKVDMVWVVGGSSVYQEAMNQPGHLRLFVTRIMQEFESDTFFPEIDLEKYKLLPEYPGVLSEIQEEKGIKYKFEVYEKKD
As to the kind of experiment: Inhibition of dihydrofolate reductase from rat liver (RL DHFR). In kind it is biochemical. Particulars: for IC50: read-out: RL DHFR Inhibitory Concentration (IC50). The text has this:
(§1) The following examples are intended to illustrate the invention, and should not be construed as limiting the invention in any way. Standard test procedures familiar to those skilled in the art were used in the examples, such as those procedures described by Gangjee, A., et al., in “5-Arylthio-substituted 2-amino-4-oxo-6-methyl pyrrolo[2,3-d]pyrimidine antifolates as thymidylate synthase inhibitors and antitumor agents”, J. Med. Chem., Vol. 38, pp. 4495-4502 (1995); “Effect of bridge region variation on antifolate and antitumor activity of classical 5-substituted 2,4-diamino furo [2,3-d]pyrimidines”, J. Med. Chem., Vol. 38, pp. 3798-3805 (1995); and “Novel 2 ,4-diamino-5-substituted-pyrrolo[2,3-d]pyrimidines As Classical and Non-Classical Antifolate Inhibitors of Dihydrofolate Reductases”, J. Med. Chem., Vol. 38, pp. 2158-2165 (Jun. 6, 1995) and references disclosed therein.
(§2) The compounds described in Table 1 were evaluated as inhibitors of dihydrofolate reductase (DHFR) from Toxoplasmosis gondii (Tx) and rat liver (RL). The evaluation of the compounds consisted of determining the IC50 values and selectivity ratios of each compound against Tx DHFR and RL DHFR. The IC50 value is the concentration of a compound required to inhibit the dihydrofolate reductase activity by 50 percent (%). […] The selectivity ratio is a measure of the selectivity of a compound for Tx DHFR and is expressed as the IC50 value of the DHFR from rat liver (RL) divided by the IC50 value of the Tx DHFR. For example, the selectivity ratio of a compound is calculated by the following formula: [formula]

Data set [2] has as its target T2, dihydrofolate reductase (DHFR) from Toxoplasmosis gondii (Tx) (Toxoplasma gondii, UniProt Q07422).
T2 sequence (Q07422 1-610): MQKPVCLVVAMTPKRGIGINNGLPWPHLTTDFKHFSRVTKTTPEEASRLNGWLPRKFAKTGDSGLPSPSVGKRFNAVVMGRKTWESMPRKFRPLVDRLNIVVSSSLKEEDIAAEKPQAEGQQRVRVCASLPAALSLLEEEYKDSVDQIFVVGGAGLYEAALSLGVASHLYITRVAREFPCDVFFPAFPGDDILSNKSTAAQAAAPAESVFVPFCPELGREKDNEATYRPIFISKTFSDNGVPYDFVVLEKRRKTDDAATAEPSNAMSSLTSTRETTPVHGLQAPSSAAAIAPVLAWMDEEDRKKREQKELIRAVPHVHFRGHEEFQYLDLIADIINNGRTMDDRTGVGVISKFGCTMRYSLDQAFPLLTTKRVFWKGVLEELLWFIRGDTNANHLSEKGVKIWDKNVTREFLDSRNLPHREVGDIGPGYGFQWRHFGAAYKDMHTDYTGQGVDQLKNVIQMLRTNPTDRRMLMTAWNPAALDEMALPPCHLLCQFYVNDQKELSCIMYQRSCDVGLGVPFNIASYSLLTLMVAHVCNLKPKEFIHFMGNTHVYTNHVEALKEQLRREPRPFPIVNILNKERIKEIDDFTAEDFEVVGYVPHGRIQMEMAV
The data set can be described thus: Inhibition of dihydrofolate reductase from Toxoplasmosis gondii (Tx DHFR). It is filed as biochemical. Particulars: for Selectivity Ratio: RL DHFR/Tx DHFR: IC50 RL DHFR divided by IC50 Tx DHFR; for IC50: Toxoplasma gondii DHFR, read-out: Tx DHFR Inhibitory Concentration (IC50).
Source text: as §1, §2

Data set [3] concerns the target T3, DHFR from Pneumocystis carinii (PC) (Pneumocystis carinii, UniProt P16184).
T3 sequence (P16184 1-206): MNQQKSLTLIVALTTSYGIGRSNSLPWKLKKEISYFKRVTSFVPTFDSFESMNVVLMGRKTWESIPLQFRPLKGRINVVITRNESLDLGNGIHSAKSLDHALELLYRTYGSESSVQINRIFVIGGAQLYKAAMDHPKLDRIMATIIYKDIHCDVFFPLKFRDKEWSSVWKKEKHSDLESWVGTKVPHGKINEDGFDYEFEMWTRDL
The data set can be described thus: Inhibition of DHFR from Pneumocystis carinii (Pc). In kind it is biochemical.

For the compound `Nc1nc(N)c(Sc2cccc3ccccc23)c(=O)[nH]1` [Compound 165], in data set [1], the IC50 was 97.2 µM. For the same compound, in data set [2], the “Selectivity Ratio: RL DHFR/Tx DHFR” value worked out at 198.4 and the IC50 came out at 0.49 µM.
In the case of `Nc1nc(N)c(Sc2ccc(Cl)cc2)c(=O)[nH]1` [Compound 167], the figures for the IC50 in data set [1] and in data set [2] were 19.8 µM and 0.22 µM, respectively. Further, the “Selectivity Ratio: RL DHFR/Tx DHFR” value in data set [2] amounted to 90.0.
On to `COc1ccc(OC)c(Sc2c(N)nc(N)[nH]c2=O)c1` [Compound 169], for which the IC50 in data set [1] turned out to be 28.5 µM. For the same compound, in data set [2], the “Selectivity Ratio: RL DHFR/Tx DHFR” value worked out at 142.5 and the IC50 was determined as 0.2 µM.
For the compound `Nc1nc(N)c(Sc2ccc(C(=O)O)cc2)c(=O)[nH]1` [Compound 170], the IC50 was found to be 122 µM in data set [1], 53.8 µM in data set [2] and 89.5 µM in data set [3] (Pneumocystis carinii DHFR). For the same compound, in data set [2], the “Selectivity Ratio: RL DHFR/Tx DHFR” value came out at 2.3. In addition, the RL/Pc selectivity ratio in data set [3] (IC50 RL DHFR divided by IC50 Pc DHFR) was determined as 1.4.
As for `Nc1nc(N)c(Sc2ccccc2Cl)c(=O)[nH]1` [Compound 171], in data set [1], the IC50 is 4.7 µM. In addition, in data set [2], the “Selectivity Ratio: RL DHFR/Tx DHFR” value is reported as 13.4 and the IC50 came out at 0.35 µM.
Consider `Nc1nc(N)c(Sc2ccc3ccccc3c2)c(=O)[nH]1` [Compound 174], for which the IC50 in data set [1] worked out at 30 µM. Also, in data set [2], the “Selectivity Ratio: RL DHFR/Tx DHFR” value worked out at 85.7 and the IC50 was 0.35 µM.
Consider `COc1cccc(Sc2c(N)nc(N)[nH]c2=O)c1` [Compound 175], for which the IC50 in data set [1] amounted to 53.4 µM. Further, in data set [2], the “Selectivity Ratio: RL DHFR/Tx DHFR” value worked out at 92.1 and the IC50 was 0.58 µM.
The like results for `Nc1nc(N)c(Sc2c(Cl)cccc2Cl)c(=O)[nH]1` [Compound 176] were, in that order, 17.5 µM, 10.3 and 1.7 µM.
`Nc1nc(N)c(Sc2ccc(Cl)cc2Cl)c(=O)[nH]1` [Compound 177]: the IC50 in data set [1] stood at 2.3 µM. Besides, in data set [2], the “Selectivity Ratio: RL DHFR/Tx DHFR” value is 16.4 and the IC50 came to 0.14 µM.
The corresponding values for `Nc1nc(N)c(Sc2ccncc2)c(=O)[nH]1` [Compound 179] are 101 µM, 11.9 and 8.5 µM.
Consider `Nc1nc(N)c(SCc2ccc(Cl)cc2)c(=O)[nH]1` [Compound 180], for which, in data set [1] (@ 60 μM), the “RL DHFR inhibition at 60 μM” value stood at 26% @ 60 μM. Further, in data set [2], the “Selectivity Ratio: RL DHFR/Tx DHFR” value is >3.16# and the IC50 stood at 16.6 µM.
The inhibition is the relative decrease from the control value, in per cent. A lower inhibition goes with a weak effect. Turning to `COc1ccc(Sc2c(N)nc(N)[nH]c2=O)cc1OC` [Compound 181], the inhibition at 67 µM in data set [1] (@ 67 μM) is 19%. Also, in data set [2], the “Selectivity Ratio: RL DHFR/Tx DHFR” value is given as >35.2# and the IC50 was 1.9 µM.
For `Nc1nc(N)c(Sc2cc(Cl)cc(Cl)c2)c(=O)[nH]1` [Compound 184], the IC50 in data set [1] came to 20.2 µM. For the same compound, in data set [2], the “Selectivity Ratio: RL DHFR/Tx DHFR” value is 74.8 and the IC50 came to 0.27 µM.
Broadly, the melting point is the temperature of the solid-liquid transition. Turning to `Nc1nc(N)c(Sc2ccc([N+](=O)[O-])cc2)c(=O)[nH]1` [Compound 185, 2,4-diamino-6-oxo-5-(4′-nitrophenylthio)pyrimidine], the melting point was > 300 °C (dec.). For the same compound, the IC50 in data set [1] stood at 15 µM. Also, in data set [2], the “Selectivity Ratio: RL DHFR/Tx DHFR” value came to 55.6 and the IC50 was determined as 0.27 µM.
Take `Nc1nc(N)c(SCc2ccccc2)c(=O)[nH]1` [Compound 187]: the IC50 in data set [1] worked out at 40.7 µM. In data set [2], the “Selectivity Ratio: RL DHFR/Tx DHFR” value was found to be 7.7 and the IC50 came to 5.3 µM.
As for `Nc1nc(N)c(Sc2ccccn2)c(=O)[nH]1` [Compound 188], the IC50 in data set [1] is 117 µM. Moreover, in data set [2], the “Selectivity Ratio: RL DHFR/Tx DHFR” value turned out to be 24.9 and the IC50 was 4.7 µM.
The corresponding values for `Nc1nc(N)c(SCc2ccc(Cl)c(Cl)c2)c(=O)[nH]1` [Compound 190] are 24.2 µM, 16.1 and 1.5 µM.
For the compound `COc1cccc(CSc2c(N)nc(N)[nH]c2=O)c1` [Compound 191], the IC50 in data set [1] was 66.8 µM. In data set [2], the “Selectivity Ratio: RL DHFR/Tx DHFR” value came out at 10.1 and the IC50 stood at 6.6 µM.
`Nc1nc(N)c(SCc2ccc(Cl)cc2Cl)c(=O)[nH]1` [Compound 193]: in data set [1], the IC50 is 7 µM. For the same compound, in data set [2], the “Selectivity Ratio: RL DHFR/Tx DHFR” value was 10 and the IC50 is 0.7 µM.
The corresponding values for `Cc1ccc(CSc2c(N)nc(N)[nH]c2=O)cc1` [Compound 194] are 193 µM, 25.4 and 7.6 µM.
Regarding `Cc1cccc(CSc2c(N)nc(N)[nH]c2=O)c1` [Compound 196], the “RL DHFR inhibition at 90 μM” value in data set [1] (@ 90 μM) was determined as 3% @ 90 μM. In addition, in data set [2], the “Selectivity Ratio: RL DHFR/Tx DHFR” value is recorded as >7.18 # and the IC50 amounted to 11.5 µM.
`Nc1nc(N)c(SCc2ccccc2Cl)c(=O)[nH]1` [Compound 197]: the IC50 is 8.2 µM in data set [1] and 2.2 µM in data set [2]. Moreover, the “Selectivity Ratio: RL DHFR/Tx DHFR” value in data set [2] was found to be 3.7.
The corresponding values for `COc1ccccc1Sc1c(N)nc(N)[nH]c1=O` [Compound 198] are 263 µM, 5.8 µM and 45.3.
The like results for `Nc1nc(N)c(Sc2nc(-c3ccccc3)cs2)c(=O)[nH]1` [Compound 199] were, in that order, 53 µM, 12.2 µM and 4.3.
The corresponding values for `Nc1nc(N)c(SCc2ccc(Br)cc2)c(=O)[nH]1` [Compound 202] are 46.7 µM, 1.9 µM and 24.6.
